# Laboratory results taken from patent publication US20250075126A1, “DIQUATERNARY COMPOUNDS FOR CORROSION INHIBITION AND METHODS OF USE THEREOF” (ChampionX LLC, priority 2023, published 2025).
# Experiments:
# [1] = Bubble cell test, corrosion rate by linear polarization resistance (LPR); conditions: 66° C.; for % Protection: 10 ppm CI composition (2 ppm active) with 0.5 ppm 2-mercaptoethanol, versus avg. blank corrosion rate, 22 hour; for Corrosion rate after 22 hour CI injection: 10 ppm CI composition (20% active = 2 ppm active) with 0.5 ppm 2-mercaptoethanol, CO2-saturated synthetic brine 80% / LVT-200 20%, 100 rpm
# Protocol: Examples were conducted to assess the corrosion inhibitors produced in Example 1 using bubble cell tests to assess corrosion performance using linear polarization resistance testing. The corrosion inhibitor was combined with the sulfur synergist 2-mercaptoethanol.
# The bubble test simulates low flow areas where little or no mixing of water and oil occurs. The test was conducted using synthetic brine (80% of the brine and 20% of a hydrocarbon containing LVT-200) as shown in Table 1.
# The brine was placed into kettles and purged with carbon dioxide resulting in carbon dioxide saturated brine. The brine was continually purged with carbon dioxide at 1 bar CO2 to saturate the brine prior to starting the test for a 2 hour pre-corrode. After the test began, the test cell was blanketed with carbon dioxide one hour prior to electrode insertion and through the duration of the test to maintain saturation. The kettles were stirred at 100 revolutions per minute (rpm) for the duration of the test at 66° C.
# The corrosion rate was measured by Linear Polarization Resistance (LPR) techniques. The working electrode used was carbon steel (C1018 grade). The counter and reference electrodes were both 1018 carbon steel. The electrodes were all cleaned and polished prior to testing. Data were collected for 2 hours before 10 ppm of the corrosion inhibitor composition (containing 20% of the reaction product corrosion inhibitor) was added to the hydrocarbon phase, equating to 2 ppm of the active reaction product corrosion inhibitor with 0.5 ppm 2-mercaptoethanol being introduced into the test cell. Data were collected overnight for 22 hour test duration.
# [2] = Partitioning test, brine/oil, LC-MS analysis; type: physicochemical; conditions: 50 ppm dosed into oil layer; 50 mL synthetic brine, 25 mL aromatic 150, 25 mL LVT 200; room temperature; 1 hour rest
# Protocol: Additional comparison testing was conducted on the alkyl diquaternary compound corrosion inhibitor of Example 1 (corrosion inhibitor VIa) compared to as conventional quaternary ammonium compounds. Partitioning tests were conducted of the corrosion inhibitor (VIa) and a quaternary ammonium compound (trimethylstearyl benzyl chloride quat) to determine the partitioning coefficient via LC-MS (Liquid Chromatography-Mass Spectroscopy) analysis.
# At room temperature, 50 mL of the synthetic brine of Table 1, 25 mL of aromatic 150, and 25 mL of LVT 200 were pipetted into a 125-mL separational funnel. 50 ppm of the corrosion inhibitor (VIa) or trimethylstearyl benzyl chloride quat were dosed into the oil layer of the funnel. The cap was inserted into the funnel and the mixture was shaken vigorously for one minute and then set for an hour. After the hour rest, the bottom layer (brine layer) was drained and collected for LC-MS analysis. LC-MS analysis determines the amount of the corrosion inhibitor (VIa) and trimethylstearyl benzyl chloride quat that partitioned into the brine phase. The amount found in the brine phase was compared to the original amount introduced into the oil phase of the brine/oil solution (50 ppm) and a percentage amount is calculated. The percent amount of the corrosion inhibitor (VIa) and trimethylstearyl benzyl chloride quat present in the brine phase is shown in Table 4.
Molecule,% Protection [1] [%],Corrosion rate after 22 hour CI injection [1] [mpy],% Partitioning to brine phase [2] [%]
CCCCCCCCCCCCCCCCCC[N+](C)(C)CC(O)C[N+](CCO)(CCO)CCO (stereo not drawn) [VIa],99.3,1.5,84.1
alkyl dimethyl benzyl chloride quat,99.3,1.4,
trimethylstearyl benzyl chloride quat,,,28.4
